The test system of this assay is human Axioloids. Kind of assay: Immunofluorescence and HCR in situ expression patterns in Axioloids. It counts as cell-based. Here is the method: Human Axioloid samples were washed twice with 0.1% BSA (Nacalai) in PBS (Takara), fixed with 4% paraformaldehyde (PFA) for 20 minutes at room temperature and then washed again twice with 0.1% BSA in PBS. Samples were permeabilized in 0.2% Triton X-100 (Nacalai) in PBS for 15 minutes at room temperature and blocked in 5% BSA in PBS for 1 hour at room temperature. Axioloid samples were stained with primary antibodies diluted in 0.5% BSA in PBST (1% Tween-20 (Nacalai) in PBS) for overnight (12-16 hours) at 4° C. Primary antibodies used in this study were: goat anti-TBXT (TBXT) (1:500, R&D Systems), mouse anti-Fibronectin (1:10, DSHB), mouse anti-Laminin (γ1) (1:10, DSHB), rabbit anti-MEOX1 (1:500, ATLAS), mouse anti-N-Cadherin (1:200, BD Biosciences), mouse anti-PKCζ (1:100, Santa Cruz), rabbit anti-SOX2 (1:400, Cell Signaling), and goat anti-TBX6 (1:500, R&D Systems). Samples were then washed twice with PBST and stained with secondary antibodies and Alexa Fluor 647 conjugated Phalloidin (Invitrogen) diluted in 0.5% BSA in PBST for 3 hours at room temperature, washed twice with PBST and counterstained with DAPI for 5 min at room temperature. […]

As for `CC1=C(/C=C/C(C)=C/C=C/C(C)=C/C=O)C(C)(C)CCC1` [RAL, all trans-Retinal], the “expression gradients of FGF8 and WNT3a (HCR)” value (MG+RAL) is “still showed clear expression gradients of FGF8 and WNT3a”. Moreover, where the note is “MG-embedded, RA or RAL treated”, the “protein and gene expression patterns (TBXT, MEOX1, UNCX, TBX18)” value is reported as “largely unchanged or even improved”.

These data come from patent publication US20250223559A1, “AXIOLOID: A STEM CELL-BASED MODEL OF HUMAN AXIAL DEVELOPMENT” (KYOTO UNIVERSITY, priority 2022, published 2025).
